Results as given in the NIST ThermoML archive (doi:10.1021/acs.jced.6b00517).
Numbers after ± are expanded uncertainties.

Key:
[1] = Liquid; for mass density: 298.15 K, 101.3 kPa, Vibrating tube method; for vapor or sublimation pressure: Ebulliometric method (Recirculating still)
[2] = Boiling temperature at pressure P; conditions: 101.3 kPa; Liquid; Ebulliometric method (Recirculating still)
[3] = refractive index (Na D-line) (dimensionless); conditions: 298.15 K; 101.3 kPa; Liquid; Standard Abbe refractometry

CO [methanol]
Conditions | Boiling temperature at pressure P [°C] | mass density [kg/m3] | refractive index
[1] | – | 786.61 ± 5 | –
[2] | 64.68 ± 0.44 | – | –
[3] | – | – | 1.3266 ± 0.01

[1]
Conditions | vapor or sublimation pressure [kPa]
315.78 K | 40 ± 2
328.56 K | 70 ± 2
337.33 K | 100 ± 2

CCCCO [butan-1-ol]
Conditions | mass density [kg/m3] | refractive index
[1] | 805.94 ± 5 | –
[3] | – | 1.3971 ± 0.01

[1]
Conditions | vapor or sublimation pressure [kPa]
367.03 K | 40 ± 2
381.07 K | 70 ± 2

CCCCOC(=O)OCCCC [dibutyl carbonate]
Conditions | Boiling temperature at pressure P [°C] | mass density [kg/m3] | refractive index
[1] | – | 925.17 ± 5 | –
[2] | 204.50 ± 0.44 | – | –
[3] | – | – | 1.4115 ± 0.01

[1]
Conditions | vapor or sublimation pressure [kPa]
383.16 K | 5 ± 2
403.77 K | 10 ± 2
410.07 K | 15 ± 2
420.73 K | 20 ± 2
427.86 K | 25 ± 2
434.15 K | 30 ± 2
439.03 K | 35 ± 2
443.67 K | 40 ± 2
443.78 K | 40 ± 2
449.33 K | 45 ± 2
453.17 K | 50 ± 2
456.63 K | 55 ± 2
459.47 K | 60 ± 2
461.31 K | 65 ± 2
463.87 K | 70 ± 2.1
464.01 K | 70 ± 2.1
465.41 K | 75 ± 2
468.56 K | 80 ± 2
470.27 K | 85 ± 2
472.83 K | 90 ± 2
475.91 K | 95 ± 2
478.02 K | 100 ± 2.1
478.18 K | 100 ± 2
